Reference: patent US20240343692A1 (priority 2021, published 2024)

Experiments:
5-HT1A = biological target: T1, 5-HT1A (Homo sapiens, UniProt P08908); test: Radioligand binding at 5-HT1A(h) (agonist radioligand), Eurofins Cerep Panlabs; conditions: human receptor, duplicate, read-out: Percent Inhibition of the Binding of a Specific Radioligand, 5-HT1A; for inhibition at 0.1 µM: % inh. at 100 nM; for inhibition at 1 µM: % inh. at 1.0 μM
T1 sequence (P08908 1-422): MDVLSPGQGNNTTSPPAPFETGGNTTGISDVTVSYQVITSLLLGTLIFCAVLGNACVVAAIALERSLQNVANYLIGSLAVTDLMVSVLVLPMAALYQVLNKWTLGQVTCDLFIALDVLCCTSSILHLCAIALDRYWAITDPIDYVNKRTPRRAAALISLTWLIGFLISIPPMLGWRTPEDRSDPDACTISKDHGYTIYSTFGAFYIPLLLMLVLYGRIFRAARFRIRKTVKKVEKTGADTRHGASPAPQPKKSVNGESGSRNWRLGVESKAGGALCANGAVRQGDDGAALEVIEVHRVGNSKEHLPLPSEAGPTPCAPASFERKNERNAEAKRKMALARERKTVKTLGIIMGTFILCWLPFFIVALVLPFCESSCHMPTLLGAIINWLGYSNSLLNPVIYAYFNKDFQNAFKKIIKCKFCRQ
Source text: FIG. 1. Histogram for 5-HT1A(h) (agonist radioligand).

5-HT2A = 5-HT2A (Homo sapiens, UniProt P28223); test: Radioligand binding at 5-HT2A(h) (agonist radioligand), Eurofins Cerep Panlabs; conditions: human receptor, duplicate, read-out: Percent Inhibition of the Binding of a Specific Radioligand, 5-HT2A; for inhibition at 0.1 µM: % inh. at 100 nM; for inhibition at 1 µM: % inh. at 1.0 μM
Source text: FIG. 2. Histogram for 5-HT2A(h) (agonist radioligand).

5-HT2B = 5-HT2B (Homo sapiens, UniProt P41595); test: Radioligand binding at 5-HT2B(h) (agonist radioligand), Eurofins Cerep Panlabs; conditions: human receptor, duplicate, read-out: Percent Inhibition of the Binding of a Specific Radioligand, 5-HT2B; for inhibition at 0.1 µM: % inh. at 100 nM; for inhibition at 1 µM: % inh. at 1.0 μM
Source text: FIG. 3. Histogram for 5-HT2B(h) (agonist radioligand).

5-HT2C = biological target: T2, 5-HT2C (Homo sapiens, UniProt P28335); test: Radioligand binding at 5-HT2C(h) (agonist radioligand), Eurofins Cerep Panlabs; conditions: human receptor, duplicate, read-out: Percent Inhibition of the Binding of a Specific Radioligand, 5-HT2C; for inhibition at 0.1 µM: % inh. at 100 nM; for inhibition at 1 µM: % inh. at 1.0 μM
T2 sequence (P28335 33-458): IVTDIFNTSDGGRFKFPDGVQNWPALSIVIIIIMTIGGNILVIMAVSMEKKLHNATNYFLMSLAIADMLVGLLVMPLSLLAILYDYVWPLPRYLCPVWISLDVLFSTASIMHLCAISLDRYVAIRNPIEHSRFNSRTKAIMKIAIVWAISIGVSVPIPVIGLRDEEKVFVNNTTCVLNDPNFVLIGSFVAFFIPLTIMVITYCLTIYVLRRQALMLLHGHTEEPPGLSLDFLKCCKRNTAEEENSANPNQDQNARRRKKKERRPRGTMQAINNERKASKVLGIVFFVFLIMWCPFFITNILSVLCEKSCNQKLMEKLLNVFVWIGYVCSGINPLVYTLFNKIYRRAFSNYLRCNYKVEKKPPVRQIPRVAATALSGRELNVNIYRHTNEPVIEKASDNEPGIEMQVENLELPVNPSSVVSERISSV
Source text: FIG. 4. Histogram for 5-HT2C(h) (agonist radioligand).

Adrenergic α1 = test: CNS receptor radioligand binding, Adrenergic α1; conditions: 10 μM; rat receptor data
Dopamine D1 = Dopamine D1 (Homo sapiens, UniProt P21728); test: CNS receptor radioligand binding, Dopamine D1; conditions: 10 μM
Dopamine D2L = Dopamine D2L (Homo sapiens, UniProt P14416); test: CNS receptor radioligand binding, Dopamine D2L; conditions: 10 μM
Dopamine D3 = Dopamine D3 (Homo sapiens, UniProt P35462); test: CNS receptor radioligand binding, Dopamine D3
GABAA = test: CNS receptor radioligand binding, GABAA; conditions: 10 μM; rat receptor data
Histamine H1 = Histamine H1 (Homo sapiens, UniProt P35367); test: CNS receptor radioligand binding, Histamine H1 (human); conditions: 10 μM
Muscarinic M2 = biological target: T3, Muscarinic M2 (Homo sapiens, UniProt P08172); test: CNS receptor radioligand binding, Muscarinic M2; conditions: 10 μM
T3 sequence (P08172 1-466): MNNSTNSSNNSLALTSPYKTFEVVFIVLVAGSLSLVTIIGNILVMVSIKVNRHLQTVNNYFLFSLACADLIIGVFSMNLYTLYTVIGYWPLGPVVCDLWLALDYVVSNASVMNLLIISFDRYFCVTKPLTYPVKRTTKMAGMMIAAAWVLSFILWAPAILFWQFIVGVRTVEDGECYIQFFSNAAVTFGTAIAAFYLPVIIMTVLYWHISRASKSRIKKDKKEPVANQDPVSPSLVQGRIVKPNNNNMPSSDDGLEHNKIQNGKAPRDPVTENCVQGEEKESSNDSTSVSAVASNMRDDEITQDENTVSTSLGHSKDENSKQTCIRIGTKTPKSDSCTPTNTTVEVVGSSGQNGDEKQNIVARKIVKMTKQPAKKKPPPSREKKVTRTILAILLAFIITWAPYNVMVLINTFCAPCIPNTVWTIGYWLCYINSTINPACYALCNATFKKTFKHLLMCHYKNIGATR

Muscarinic M5 = biological target: T4, Muscarinic M5 (Homo sapiens, UniProt P08912); test: CNS receptor radioligand binding, Muscarinic M5; conditions: 10 μM
T4 sequence (P08912 1-532): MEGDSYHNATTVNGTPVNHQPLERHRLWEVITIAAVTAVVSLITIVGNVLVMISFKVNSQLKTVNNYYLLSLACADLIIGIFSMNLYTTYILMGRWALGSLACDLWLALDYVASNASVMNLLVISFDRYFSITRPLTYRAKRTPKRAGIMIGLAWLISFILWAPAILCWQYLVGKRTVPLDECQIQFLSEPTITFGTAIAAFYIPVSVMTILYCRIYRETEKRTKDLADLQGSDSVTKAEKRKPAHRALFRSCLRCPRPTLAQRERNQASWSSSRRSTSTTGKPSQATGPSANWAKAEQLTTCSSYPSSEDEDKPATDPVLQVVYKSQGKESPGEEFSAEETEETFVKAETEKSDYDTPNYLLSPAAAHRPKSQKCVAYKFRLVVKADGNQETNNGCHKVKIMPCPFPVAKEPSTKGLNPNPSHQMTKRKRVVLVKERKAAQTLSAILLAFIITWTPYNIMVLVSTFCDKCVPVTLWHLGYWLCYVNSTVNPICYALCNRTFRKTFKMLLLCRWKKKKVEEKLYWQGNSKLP

[1] = biological target: Nicotinic Acetylcholine α4β2 (Homo sapiens, UniProt P17787+P43681); test: CNS receptor radioligand binding, Nicotinic Acetylcholine α4β2; conditions: 10 μM
Opiate κ = Opiate κ (Homo sapiens, UniProt P41145); test: CNS receptor radioligand binding, Opiate κ; conditions: 10 μM
Orexin OX1 = biological target: T5, Orexin OX1 (Homo sapiens, UniProt O43613); test: CNS receptor radioligand binding, Orexin OX1; conditions: 10 μM
T5 sequence (O43613 1-425): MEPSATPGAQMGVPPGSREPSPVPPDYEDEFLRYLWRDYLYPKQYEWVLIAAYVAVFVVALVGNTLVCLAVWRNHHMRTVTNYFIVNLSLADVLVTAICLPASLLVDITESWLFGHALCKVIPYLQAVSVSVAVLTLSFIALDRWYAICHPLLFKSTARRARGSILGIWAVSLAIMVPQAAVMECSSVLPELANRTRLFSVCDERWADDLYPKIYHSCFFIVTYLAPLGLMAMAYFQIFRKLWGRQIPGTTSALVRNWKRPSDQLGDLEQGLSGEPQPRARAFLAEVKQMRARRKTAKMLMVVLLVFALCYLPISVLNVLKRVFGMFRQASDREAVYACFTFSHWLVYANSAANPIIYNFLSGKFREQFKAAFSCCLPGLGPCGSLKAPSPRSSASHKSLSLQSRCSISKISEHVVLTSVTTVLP

Serotonin 5-HT1A [2] = biological target: T6, Serotonin 5-HT1A (Homo sapiens, UniProt P08908); test: CNS receptor radioligand binding, Serotonin 5-HT1A
T6 sequence (P08908 1-422): T1 sequence (P08908 1-422)

Serotonin 5-HT2A [3] = biological target: T7, Serotonin 5-HT2A (Homo sapiens, UniProt P28223); test: CNS receptor radioligand binding, Serotonin 5-HT2A
Serotonin 5-HT1A [4] = biological target: T6, Serotonin 5-HT1A; test: Receptor activation potency, Serotonin 5-HT1A; type: biochemical; conditions: 5-point concentration response curves, duplicate
Serotonin 5-HT2A [5] = biological target: T7, Serotonin 5-HT2A; test: Receptor activation potency, Serotonin 5-HT2A; type: biochemical; conditions: 5-point concentration response curves, duplicate
Serotonin 5-HT2B = Serotonin 5-HT2B (Homo sapiens, UniProt P41595); test: Receptor activation potency, Serotonin 5-HT2B; type: biochemical; conditions: 5-point concentration response curves, duplicate
Serotonin 5-HT2C = biological target: T8, Serotonin 5-HT2C (Homo sapiens, UniProt P28335); test: Receptor activation potency, Serotonin 5-HT2C; type: biochemical; conditions: 5-point concentration response curves, duplicate
T8 sequence (P28335 33-458): T2 sequence (P28335 33-458)

Sigma-1 = Sigma-1 (Homo sapiens, UniProt Q99720); test: Inhibition constant, Sigma-1; type: binding; conditions: human receptor; 5-point concentration response curves; duplicate; read-out: inhibition constants Ki, Sigma-1
Chain of Sigma-1 (Q99720 whole entry): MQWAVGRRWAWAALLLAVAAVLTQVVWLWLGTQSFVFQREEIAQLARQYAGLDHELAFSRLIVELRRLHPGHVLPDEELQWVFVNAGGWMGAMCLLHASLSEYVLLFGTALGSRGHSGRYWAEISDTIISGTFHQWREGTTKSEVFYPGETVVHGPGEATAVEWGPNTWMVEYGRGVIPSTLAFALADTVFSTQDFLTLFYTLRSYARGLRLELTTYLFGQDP

T7 sequence (P28223 whole entry, looked up): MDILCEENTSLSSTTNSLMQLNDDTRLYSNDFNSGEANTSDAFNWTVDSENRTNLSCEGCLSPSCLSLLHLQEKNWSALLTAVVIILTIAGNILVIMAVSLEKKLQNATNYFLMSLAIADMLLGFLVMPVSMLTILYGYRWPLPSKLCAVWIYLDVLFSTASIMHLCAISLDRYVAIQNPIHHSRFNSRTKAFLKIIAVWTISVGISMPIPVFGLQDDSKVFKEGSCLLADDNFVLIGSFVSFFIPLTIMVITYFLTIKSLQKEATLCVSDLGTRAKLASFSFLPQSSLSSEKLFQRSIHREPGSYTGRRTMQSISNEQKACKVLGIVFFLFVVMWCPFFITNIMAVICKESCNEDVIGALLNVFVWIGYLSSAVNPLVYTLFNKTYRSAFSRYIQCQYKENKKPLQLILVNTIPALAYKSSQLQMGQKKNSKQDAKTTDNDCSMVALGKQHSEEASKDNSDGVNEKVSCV
Chain of 5-HT2A (P28223 whole entry, looked up): as above
Chain of 5-HT2B (P41595 whole entry): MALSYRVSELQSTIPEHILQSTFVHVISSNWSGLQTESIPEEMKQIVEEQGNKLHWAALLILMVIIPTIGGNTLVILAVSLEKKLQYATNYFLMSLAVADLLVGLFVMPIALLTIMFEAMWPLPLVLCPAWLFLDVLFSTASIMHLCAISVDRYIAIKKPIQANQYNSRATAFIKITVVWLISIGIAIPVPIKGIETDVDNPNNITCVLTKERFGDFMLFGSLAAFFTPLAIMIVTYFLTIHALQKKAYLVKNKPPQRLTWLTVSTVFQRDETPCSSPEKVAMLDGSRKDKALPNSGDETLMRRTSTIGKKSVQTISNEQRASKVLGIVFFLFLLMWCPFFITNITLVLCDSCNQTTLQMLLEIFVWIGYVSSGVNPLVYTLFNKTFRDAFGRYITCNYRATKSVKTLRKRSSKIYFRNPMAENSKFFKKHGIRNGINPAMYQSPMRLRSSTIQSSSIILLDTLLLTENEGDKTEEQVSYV
Chain of Dopamine D3 (P35462 whole entry): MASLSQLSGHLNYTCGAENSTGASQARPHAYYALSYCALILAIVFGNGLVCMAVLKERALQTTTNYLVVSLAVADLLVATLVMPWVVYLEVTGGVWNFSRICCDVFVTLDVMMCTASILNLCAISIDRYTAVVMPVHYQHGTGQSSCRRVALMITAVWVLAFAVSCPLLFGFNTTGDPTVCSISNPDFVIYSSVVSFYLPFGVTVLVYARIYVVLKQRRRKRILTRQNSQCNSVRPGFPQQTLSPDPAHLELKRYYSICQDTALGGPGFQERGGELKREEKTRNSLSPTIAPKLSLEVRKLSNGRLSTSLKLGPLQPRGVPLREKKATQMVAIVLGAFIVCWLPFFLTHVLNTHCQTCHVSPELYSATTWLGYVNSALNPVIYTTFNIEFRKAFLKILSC
Chain of Opiate κ (P41145 whole entry): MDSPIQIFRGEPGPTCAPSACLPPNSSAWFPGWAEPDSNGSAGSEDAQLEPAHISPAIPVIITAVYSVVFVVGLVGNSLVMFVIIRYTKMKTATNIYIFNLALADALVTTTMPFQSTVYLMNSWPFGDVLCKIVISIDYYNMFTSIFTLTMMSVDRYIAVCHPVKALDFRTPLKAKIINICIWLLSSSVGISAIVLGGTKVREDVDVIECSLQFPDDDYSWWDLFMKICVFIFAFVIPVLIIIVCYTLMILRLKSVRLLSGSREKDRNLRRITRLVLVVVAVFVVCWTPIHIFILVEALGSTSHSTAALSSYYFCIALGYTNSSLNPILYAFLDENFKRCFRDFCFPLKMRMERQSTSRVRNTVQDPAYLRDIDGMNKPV
Chain of Histamine H1 (P35367 whole entry): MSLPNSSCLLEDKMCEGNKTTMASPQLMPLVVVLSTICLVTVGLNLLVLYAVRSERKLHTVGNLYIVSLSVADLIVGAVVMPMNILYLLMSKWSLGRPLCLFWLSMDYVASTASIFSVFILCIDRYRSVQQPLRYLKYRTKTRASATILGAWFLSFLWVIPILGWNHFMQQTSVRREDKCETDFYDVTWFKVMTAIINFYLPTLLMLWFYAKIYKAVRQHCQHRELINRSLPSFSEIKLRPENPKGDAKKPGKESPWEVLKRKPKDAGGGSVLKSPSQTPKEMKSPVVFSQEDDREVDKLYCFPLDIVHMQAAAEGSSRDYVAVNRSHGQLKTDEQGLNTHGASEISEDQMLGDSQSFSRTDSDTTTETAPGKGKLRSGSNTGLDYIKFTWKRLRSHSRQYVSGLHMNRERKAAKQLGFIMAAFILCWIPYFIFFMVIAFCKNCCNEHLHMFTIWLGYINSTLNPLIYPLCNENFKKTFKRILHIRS
Chain of Dopamine D1 (P21728 whole entry): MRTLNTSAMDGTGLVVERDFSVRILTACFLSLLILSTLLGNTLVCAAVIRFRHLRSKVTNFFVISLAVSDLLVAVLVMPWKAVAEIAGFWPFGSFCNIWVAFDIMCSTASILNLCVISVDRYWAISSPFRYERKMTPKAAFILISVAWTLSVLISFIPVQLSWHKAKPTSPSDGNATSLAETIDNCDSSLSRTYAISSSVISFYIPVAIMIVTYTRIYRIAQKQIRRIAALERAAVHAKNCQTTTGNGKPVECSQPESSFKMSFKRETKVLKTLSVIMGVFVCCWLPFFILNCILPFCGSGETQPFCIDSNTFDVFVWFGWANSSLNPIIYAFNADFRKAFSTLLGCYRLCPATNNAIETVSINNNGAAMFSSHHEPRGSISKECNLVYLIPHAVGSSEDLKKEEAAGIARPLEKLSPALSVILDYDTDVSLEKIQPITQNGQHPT
Chain of Serotonin 5-HT2B (P41595 whole entry): as the sequence (P41595 whole entry) above
Chain of Dopamine D2L (P14416 whole entry): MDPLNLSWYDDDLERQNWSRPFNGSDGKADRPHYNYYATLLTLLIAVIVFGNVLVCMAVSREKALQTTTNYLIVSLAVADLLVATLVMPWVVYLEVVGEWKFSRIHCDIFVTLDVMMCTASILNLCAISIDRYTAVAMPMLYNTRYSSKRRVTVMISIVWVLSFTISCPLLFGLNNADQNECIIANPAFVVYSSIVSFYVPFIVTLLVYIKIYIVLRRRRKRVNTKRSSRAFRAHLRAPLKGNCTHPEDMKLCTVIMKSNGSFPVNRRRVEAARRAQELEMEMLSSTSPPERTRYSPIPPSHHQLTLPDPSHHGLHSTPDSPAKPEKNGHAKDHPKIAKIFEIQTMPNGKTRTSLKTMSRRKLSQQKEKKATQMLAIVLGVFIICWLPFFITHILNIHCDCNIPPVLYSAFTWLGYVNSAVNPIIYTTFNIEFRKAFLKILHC
Chain of Nicotinic Acetylcholine α4β2 (P43681 29-627 limits assumed): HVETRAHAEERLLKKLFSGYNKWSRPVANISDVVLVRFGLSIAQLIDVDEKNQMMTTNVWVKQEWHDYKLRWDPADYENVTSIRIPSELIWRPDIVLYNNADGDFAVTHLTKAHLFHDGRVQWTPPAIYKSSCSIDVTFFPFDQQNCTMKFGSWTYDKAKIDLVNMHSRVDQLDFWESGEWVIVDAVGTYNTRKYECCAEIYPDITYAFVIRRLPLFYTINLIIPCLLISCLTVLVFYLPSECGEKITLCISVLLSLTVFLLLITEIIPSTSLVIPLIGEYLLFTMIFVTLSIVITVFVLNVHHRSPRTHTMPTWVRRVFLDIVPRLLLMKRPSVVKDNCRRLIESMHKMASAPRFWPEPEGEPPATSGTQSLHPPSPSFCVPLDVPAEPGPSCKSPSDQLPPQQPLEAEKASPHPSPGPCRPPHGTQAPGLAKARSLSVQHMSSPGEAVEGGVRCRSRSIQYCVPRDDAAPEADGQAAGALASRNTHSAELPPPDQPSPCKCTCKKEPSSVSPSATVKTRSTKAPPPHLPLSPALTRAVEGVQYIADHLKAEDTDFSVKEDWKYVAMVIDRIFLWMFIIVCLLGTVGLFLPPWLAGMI
Chain of Nicotinic Acetylcholine α4β2 (P17787 26-502): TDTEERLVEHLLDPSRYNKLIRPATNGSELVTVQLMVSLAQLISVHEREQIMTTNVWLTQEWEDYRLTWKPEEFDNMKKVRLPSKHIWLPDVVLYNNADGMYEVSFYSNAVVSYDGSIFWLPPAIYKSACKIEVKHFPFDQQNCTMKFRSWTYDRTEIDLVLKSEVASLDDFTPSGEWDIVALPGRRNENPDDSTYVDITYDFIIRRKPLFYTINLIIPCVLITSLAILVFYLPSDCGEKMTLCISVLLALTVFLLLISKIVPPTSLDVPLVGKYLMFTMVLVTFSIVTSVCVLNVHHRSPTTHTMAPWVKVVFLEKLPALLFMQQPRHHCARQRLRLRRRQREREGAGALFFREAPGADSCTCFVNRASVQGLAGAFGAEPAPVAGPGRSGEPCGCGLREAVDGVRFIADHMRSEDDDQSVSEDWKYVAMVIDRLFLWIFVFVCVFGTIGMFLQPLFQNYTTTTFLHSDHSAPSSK

Work on `CN1C[C@@H](CO)C=C2c3cccc4[nH]cc(c34)C[C@H]21` [(+)-2, (+)-isolysergol] yielded an inhibition at 0.1 µM (5-HT1A) of 96%, an inhibition at 1 µM (5-HT1A) of 99% and an inhibition at 0.1 µM (5-HT2A) of 92%. The inhibition at 1 µM (5-HT2A) was 99%, the inhibition at 0.1 µM (5-HT2B) was 90% and the inhibition at 1 µM (5-HT2B) was 93%. The inhibition at 0.1 µM (5-HT2C) was 91% and the inhibition at 1 µM (5-HT2C) was 97%.

`CN1C[C@H](CO)C=C2c3cccc4[nH]cc(c34)C[C@@H]21` [(−)-2, (−)-isolysergol] gave an inhibition at 0.1 µM (5-HT1A) of 9%, an inhibition at 1 µM (5-HT1A) of 19% and an inhibition at 0.1 µM (5-HT2A) of 0%. The inhibition at 1 µM (5-HT2A) was 20%, the inhibition at 0.1 µM (5-HT2B) was 3% and the inhibition at 1 µM (5-HT2B) was 16%. For the same compound, the inhibition at 0.1 µM (5-HT2C) was 5% and the inhibition at 1 µM (5-HT2C) was 44%.

(+)-Cycloclavine was tested, and the “Percent Inhibition of Specific Binding of a Radioligand Standard, Adrenergic α1” value (Adrenergic α1) was 57 % inh, the “Percent Inhibition of Specific Binding of a Radioligand Standard, Dopamine D1” value (Dopamine D1) was 91 % inh and the “Percent Inhibition of Specific Binding of a Radioligand Standard, Dopamine D2L” value (Dopamine D2L) was 81 % inh. The “Percent Inhibition of Specific Binding of a Radioligand Standard, Dopamine D3” value (Dopamine D3; 1 μM) was 75 % inh, the “Percent Inhibition of Specific Binding of a Radioligand Standard, Dopamine D3” value (Dopamine D3; 10 μM) was 93 % inh and the “Percent Inhibition of Specific Binding of a Radioligand Standard, GABAA” value (GABAA) was 9 % inh. For the same compound, the “Percent Inhibition of Specific Binding of a Radioligand Standard, Histamine H1” value (Histamine H1) was 17 % inh, the “Percent Inhibition of Specific Binding of a Radioligand Standard, Muscarinic M2” value (Muscarinic M2) was 0 % inh and the “Percent Inhibition of Specific Binding of a Radioligand Standard, Muscarinic M5” value (Muscarinic M5) was 11 % inh. The “Percent Inhibition of Specific Binding of a Radioligand Standard, Nicotinic Acetylcholine α4β2” value [1] was 9 % inh, the “Percent Inhibition of Specific Binding of a Radioligand Standard, Opiate κ” value (Opiate κ) was 73 % inh and the “Percent Inhibition of Specific Binding of a Radioligand Standard, Orexin OX1” value (Orexin OX1) was 23 % inh. The “Percent Inhibition of Specific Binding of a Radioligand Standard, Serotonin 5-HT1A” value (Serotonin 5-HT1A [2]; 1 μM) was 97 % inh, the “Percent Inhibition of Specific Binding of a Radioligand Standard, Serotonin 5-HT1A” value (Serotonin 5-HT1A [2]; 10 μM) was 97 % inh and the “Percent Inhibition of Specific Binding of a Radioligand Standard, Serotonin 5-HT2A” value (Serotonin 5-HT2A [3]; 1 μM) was 100 % inh. For the same compound, the “Percent Inhibition of Specific Binding of a Radioligand Standard, Serotonin 5-HT2A” value (Serotonin 5-HT2A [3]; 10 μM) was 100 % inh, the EC50 (Serotonin 5-HT1A [4]) was 0.14 µM and the EC50 (Serotonin 5-HT2A [5]) was roughly 10 µM. It also gave an EC50 (Serotonin 5-HT2B) greater than 20 µM, an EC50 (Serotonin 5-HT2C) of 0.016 µM and a Ki (Sigma-1) of roughly 50 µM.
